Assay results reported in PubChem BioAssay AID2060505 (Molecular Pharmacology Branch, DTP, NCI, 2025).
Values joined by “and” are separate entries in the source; they are usually repeats but may differ in a detail not shown here. Equal values may be shown once. Blank lines part the entries; values can stand above or below the compound they belong to.

Test system: 633275-114-R-J1-PDC complex spheroids, viability
Experiment: Anticancer human tumor 633275-114-R-J1-PDC patient-derived endometrial adenocarcinoma cell line growth inhibition [GQUAD]
Details: for viability, T/C: stronger effect = lower value
Excerpt: DNA G-quadruplex Stabilizer Agents in Combinations in Complex Spheroids
A high-throughput screen of multi-cell type tumor spheroids was designed to identify active combinations of DNA G-quadruplex stabilizer agents and targeted small molecules. Complex spheroids include a stromal component modeled by human endothelial cells (HUVEC) and fibroblasts modeled by human mesenchymal stem cells (MSCs). The concentration ranges selected for each drug and investigational agent were based upon clinically achievable concentrations if the clinical Cmax of the agent was known.
Compounds. The drugs and investigational agents: pidnarulex (CX-5461; NSC782164), APTO-253 (NSC789042), BRACO-19 (NSC847499), peposertib (NSC802822), ceralasertib (NSC780249), elimusertib (NSC800525), camonsertib (NSC841442), AZD-1390 (NSC803789), olaparib (NSC753686), talazoparib (NSC767125), ART-558 (NSC835418), sotorasib (NSC818433), MRTX-1133 (NSC836407), SN-38 (NSC673596), topotecan (NSC609699), etoposide (NSC141540), doxorubicin (NSC123127), gemcitabine (NSC613327), 5-fluorouracil (NSC19893), paclitaxel (NSC125973), vemurafenib (NSC761431), panobinostat (NSC761190), R-306465 (JNJ-16241199; NSC773264), adavosertib (NSC754352), TP-3654 (NSC805149), carboplatin (NSC241240), KSQ-4279 (NSC840948), and staurosporine (NSC755774) were obtained from the National Cancer Institute (NCI) Developmental Therapeutics Program Chemical Repository (34). The FDA-approved anticancer drug set is available from the NCI Developmental Therapeutics Program. […] The stock solutions were prepared in dimethyl sulfoxide (DMSO, Sigma-Aldrich, St. Louis, MO, cat. D2650) at 800-fold the tested concentration and stored at -70 degrees C prior to their use. All drugs and investigational agents were tested over a range starting from a high concentration at or near the clinical Cmax and decreasing in half-log increments. If the clinical Cmax for an agent had not been determined, the highest concentration tested was 10 microM.
2.3 Cell Culture. All cells were maintained in an incubator at 37 degrees C and 5% CO2 with 95% humidity. The PDC lines were cultured according to standard operating procedures established by the NCI PDMR. All PDCs were thawed and cultured in Matrigel-coated flasks prepared with a working solution of 1X Ham's F-12 nutrient mix, without supplementation (Invitrogen, cat. 11765054), 100 U/mL penicillin-streptomycin (Invitrogen, cat. 15140122), and 2.5% Matrigel (Corning Inc., cat. 354248) for the first three passages. The 857933-349-R-J2-PDC line was cultured in 6C/Colon 1B media, which includes advanced DMEM/F-12 (Thermo Fisher Scientific, cat. 12634028), 10 mM HEPES (Thermo Fisher Scientific, cat. 15630080), 1X GlutaMAX supplement (Thermo Fisher Scientific, cat. 35050061), 0.1 mg/mL primocin (InvivoGen, cat. ant-pm-2), 10% defined fetal bovine serum, heat inactivated (HyClone Laboratories Inc., cat. SH30070.03HI), 50% L-WRN conditioned media (ATCC, cat. CRL-3276), 1.25 mM N-Acetyl-L-cysteine (Sigma-Aldrich, cat. A9165), 10 mM nicotinamide (Sigma-Aldrich, cat. N0636), 1X B-27 supplement (Thermo Fisher Scientific, cat. 17504044), 1X N-2 supplement (Thermo Fisher Scientific, cat. 17502048), 10 microM Y-27632 dihydrochloride (Tocris Bioscience, cat. 1254), and 50 ng/mL human EGF recombinant protein (Thermo Fisher Scientific, cat. PHG0311). The 485176-168-R4-J1-PDC line was cultured in Panc media, which includes all 6C/Colon 1B media components plus 100 ng/mL human FGF-10 (Thermo Fisher Scientific, cat. 100-26), 500 nM SB-431542 (Selleckchem, cat. S1067), and gastrin (Tocris, cat. 3006).
[…]
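Further: spheroids exposed to the agents for seven days.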
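Wherever viability, T/C is given: percent of DMSO vehicle control viability which is 100%.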

- IC50 (curve of first compound, second compound 0.0316 µM): 109 nM
- IC50 (curve of first compound, second compound 0.1 µM): < 31.6 nM
- IC50 (curve of first compound, second compound 0.316 µM): < 31.6 nM
- IC50 (curve of first compound, second compound 1 µM): < 31.6 nM
- IC50 (curve of first compound, second compound 3.16 µM): < 31.6 nM
- IC50 (curve of first compound, second compound 10 µM): < 31.6 nM
Compound: O=C(NO)c1cnc(N2CCN(S(=O)(=O)c3ccc4ccccc4c3)CC2)nc1 + Cc1cnc(CNC(=O)c2c(=O)c3ccc(N4CCCN(C)CC4)nc3n3c2sc2ccccc23)cn1
- viability, T/C (second compound 0.0316 µM, first compound 0.0316 µM): 54%
- viability, T/C (second compound 0.0316 µM, first compound 0.1 µM): 53.5%
- viability, T/C (second compound 0.0316 µM, first compound 0.316 µM): 33.2%
- viability, T/C (second compound 0.0316 µM, first compound 1 µM): 15.1%
- viability, T/C (second compound 0.0316 µM, first compound 3.16 µM): 12.3%
- viability, T/C (second compound 0.0316 µM, first compound 10 µM): 4.21%
- viability, T/C (second compound 0.1 µM, first compound 0.0316 µM): 48.3%
- viability, T/C (second compound 0.1 µM, first compound 0.1 µM): 42.8%
- viability, T/C (second compound 0.1 µM, first compound 0.316 µM): 31%
- viability, T/C (second compound 0.1 µM, first compound 1 µM): 16.3%
- viability, T/C (second compound 0.1 µM, first compound 3.16 µM): 10.7%
- viability, T/C (second compound 0.1 µM, first compound 10 µM): 4.01%
- viability, T/C (second compound 0.316 µM, first compound 0.0316 µM): 40.8%
- viability, T/C (second compound 0.316 µM, first compound 0.1 µM): 42.9%
- viability, T/C (second compound 0.316 µM, first compound 0.316 µM): 23.7%
- viability, T/C (second compound 0.316 µM, first compound 1 µM): 14.1%
- viability, T/C (second compound 0.316 µM, first compound 3.16 µM): 7.68%
- viability, T/C (second compound 0.316 µM, first compound 10 µM): 1.96%
- viability, T/C (second compound 1 µM, first compound 0.0316 µM): 40.4%
- viability, T/C (second compound 1 µM, first compound 0.1 µM): 36.3%
- viability, T/C (second compound 1 µM, first compound 0.316 µM): 22.4%
- viability, T/C (second compound 1 µM, first compound 1 µM): 7.98%
- viability, T/C (second compound 1 µM, first compound 3.16 µM): 3.91%
- viability, T/C (second compound 1 µM, first compound 10 µM): 0.11%
- viability, T/C (second compound 3.16 µM, first compound 0.0316 µM): 37.8%
- viability, T/C (second compound 3.16 µM, first compound 0.1 µM): 34.1%
- viability, T/C (second compound 3.16 µM, first compound 0.316 µM): 20.5%
- viability, T/C (second compound 3.16 µM, first compound 1 µM): 0.25%
- viability, T/C (second compound 3.16 µM, first compound 3.16 µM): 0.07%
- viability, T/C (second compound 3.16 µM, first compound 10 µM): 0.11%
- viability, T/C (second compound 10 µM, first compound 0.0316 µM): 31.9%
- viability, T/C (second compound 10 µM, first compound 0.1 µM): 27.6%
- viability, T/C (second compound 10 µM, first compound 0.316 µM): 21.5%
- viability, T/C (second compound 10 µM, first compound 1 µM): 0.17%
- viability, T/C (second compound 10 µM, first compound 3.16 µM): 0.14%
- viability, T/C (second compound 10 µM, first compound 10 µM): 0.18%

- IC50 (curve of compound): 87.6 nM and 48.1 nM and 74.7 nM
Compound: COc1cccc2c1C(=O)c1c(O)c3c(c(O)c1C2=O)CC(O)(C(=O)CO)CC3OC1CC(N)C(O)C(C)O1 (centres undefined)
- viability, T/C (compound 0.0316 µM): 62% and 55.6% and 60.7%
- viability, T/C (compound 0.1 µM): 45.2% and 39% and 44.2%
- viability, T/C (compound 0.316 µM): 35.7% and 31.5% and 33%
- viability, T/C (compound 1 µM): 21.9% and 16.8% and 22.1%
- viability, T/C (compound 3.16 µM): 1.91% and 1.16% and 1.41%
- viability, T/C (compound 10 µM): 2% and 1.77% and 1.5%
